Laboratory results: patent US5817332A, “Transdermal drug delivery system” (priority 1994, dated 1998)
Values after ≈ are worked out from the molar mass of the structure shown. Read-outs that look alike come from different tables or passages of the source.

Key:
[1] = In vitro release of DEX from silicone depot patches in diffusion cells; type: physicochemical; conditions: trisodium phosphate in device core
Procedure: The effect of cyclodextrin on the release rate of DEX was determined using reservoir-type silicone depot patches. Typical composition of the reservoir containing the drug and CD in molar ratio 1:1 was:
______________________________________
DEX HCl 200 μg (170 μg DEX base)
Tris-buffer (TRIS), trisodium phosphate (TP), disodium phosphate (DP), sodium phosphate (MP) or the mixture of disodium and sodium phosphates (50/50) (MP/DP) were used to buffer the devices. 2-HP-β-CD was added to the device in three different ways:
1) without precomplexation with DEX
2) using an inclusion complex of DEX and CD prepared by grinding
3) using an inclusion complex of DEX and CD prepared by spray-drying
In some patches the amount of pH-adjusting agent (DP) was decreased from 1600 μg to 200 μg or 2-HP-γ-CD was used instead of β-derivative.
Silicone membranes for the devices were made of MDX-4-4210 medical grade elastomer (Dow Corning, Midland, […].) by mixing 10% (w/w) MDX-4240 curing agent with the elastomer. […]
In vitro release of DEX from the devices was determined in diffusion cells at 34 ±1° C. […] At predetermined times, samples of 250 μl were withdrawn, replaced by fresh buffer solution, and the concentration of DEX in the samples was analyzed by RP-HPLC. After each release experiment pH in the devices was measured with a microelectrode.

[2] = as pH is increased; cited from earlier work
[3] = Phase-solubility of dexmedetomidine in aqueous 2-HP-β-CD solutions (phosphate buffers, 32 °C); type: physicochemical; conditions: for solubility at 240 h: phosphate buffer with 2-hp-β-cd, 32° C., read-out: DEX solubility
Procedure: The excess amount of the drug was added to pH 6.0, 7.0 and 8.0 phosphate buffers (142 mM) and the pHs of the suspensions were readjusted with 0.2M NaOH. The suspensions were shaken at 32° C. in a water bath for 10 days. After equilibration, the saturated solutions of DEX were filtered, diluted and the concentrations of DEX were analyzed by RP-HPLC at 210 nm.

SMILES: Cc1cccc([C@H](C)c2cnc[nH]2)c1C [DEX, dexmedetomidine]
- increase of DEX release rate by trisodium phosphate [1]: over 180 times
- aqueous solubility (in words) [2]: drops dramatically
- influence of 2-HP-β-CD on solubility of DEX (in words) ([3]; pH 6.0, 7.0 and 8.0): the greatest as the pH of the solutions was highest
- improvement of the solubility of DEX by addition of 50% (m/V) 2-HP-β-CD ([3]; pH 6.0, 7.0 and 8.0 buffers): 19-99 times
- solubility at 240 h ([3]; pH 6, pH 6, 2-HP-β-CD 5 % (m/V) (35 mM)): 7060 µg/mL (≈ 35.3 mM)
- solubility at 240 h ([3]; pH 6, pH 6, 2-HP-β-CD 10 % (m/V) (70 mM)): 10000 µg/mL (≈ 50 mM)
- solubility at 240 h ([3]; pH 6, pH 6, 2-HP-β-CD 15 % (m/V) (105 mM)): 12800 µg/mL (≈ 63.9 mM)
- solubility at 240 h ([3]; pH 6, pH 6, 2-HP-β-CD 30 % (m/V) (209 mM)): 20900 µg/mL (≈ 105 mM)
- solubility at 240 h ([3]; pH 6, pH 6, 2-HP-β-CD 50 % (m/V) (349 mM)): 36800 µg/mL (≈ 184 mM)
- solubility at 240 h ([3]; pH 7, pH 7, 2-HP-β-CD 5 % (m/V) (35 mM)): 1600 µg/mL (≈ 7.99 mM)
- solubility at 240 h ([3]; pH 7, pH 7, 2-HP-β-CD 10 % (m/V) (70 mM)): 3040 µg/mL (≈ 15.2 mM)
- solubility at 240 h ([3]; pH 7, pH 7, 2-HP-β-CD 15 % (m/V) (105 mM)): 4910 µg/mL (≈ 24.5 mM)
- solubility at 240 h ([3]; pH 7, pH 7, 2-HP-β-CD 30 % (m/V) (209 mM)): 9330 µg/mL (≈ 46.6 mM)
- solubility at 240 h ([3]; pH 7, pH 7, 2-HP-β-CD 50 % (m/V) (349 mM)): 12800 µg/mL (≈ 64.1 mM)
- solubility at 240 h ([3]; pH 8, pH 8, 2-HP-β-CD 5 % (m/V) (35 mM)): 1230 µg/mL (≈ 6.15 mM)
- solubility at 240 h ([3]; pH 8, pH 8, 2-HP-β-CD 10 % (m/V) (70 mM)): 2260 µg/mL (≈ 11.3 mM)
- solubility at 240 h ([3]; pH 8, pH 8, 2-HP-β-CD 15 % (m/V) (105 mM)): 3770 µg/mL (≈ 18.8 mM)
- solubility at 240 h ([3]; pH 8, pH 8, 2-HP-β-CD 30 % (m/V) (209 mM)): 7200 µg/mL (≈ 35.9 mM)
- solubility at 240 h ([3]; pH 8, pH 8, 2-HP-β-CD 50 % (m/V) (349 mM)): 13300 µg/mL (≈ 66.2 mM)
